Where a name gives a salt, the structure may show the parent alone.
How the values were obtained:
[1] = system: NREM sigma, EO and EC gamma absolute power; experiment: Population PKPD modelling of EEG power versus model-predicted plasma concentration (NONMEM); assay type: in vivo, human
Experimental: The pharmacokinetic/pharmacodynamic (PKPD) effects of administration a compound of formula (II) on EEG were also evaluated. The recording of the NREM sigma absolute power was reported as a single summary value of a single night of sleep following each dose on pre-specified days (baseline and Days 4, 8 and 12 for Example 11, Part A and Days 10, 17, 24, and 31 for Part B, as set forth in Tables 22 and 23, above. Each NREM sigma absolute power value was paired with a model predicted average plasma concentration (Cave) that corresponded to the 24-hour EEG recording period on the respective study day. For example, if the period of EEG recording for an individual was from 6 am on Day 4 to 6 am on Day 5, then the corresponding Cave was calculated as the average of the individual's model-predicted concentrations (sampled every 30 minutes) from that same time period. The resulting PKPD data were analyzed in a mixed-effects modelling framework using NONlinear Mixed Effects Modeling (NONMEM) software. The change from baseline NREM sigma absolute power was specified as the outcome and the primary explanatory variable was the Cave of a compound of formula (II).
(§1) The eyes open (EO) and eyes closed (EC) gamma absolute power for each individual was also estimated at specific time points across the study days.
The population PK model was used to generate Cave for NREM sigma absolute power and concentrations for EO and EC gamma absolute power. For NREM sigma absolute power, the Cave was computed for the final day of each dose level over the EEG collection interval. For EO and EC gamma absolute power, concentrations at 4 hours post-dose and 23.75 hours post-dose were generated on the final day of each dose level. The final population PKPD models for NREM sigma absolute power and EO and EC gamma absolute power were then used to generate corresponding EEG responses.

[2] = Food effect: high-fat, high-calorie meal, single 20 mg dose; assay type: in vivo, human; details: single 20 mg oral dose
Experimental: The effect of a high-fat, high-calorie meal on the pharmacokinetics of a compound of formula (II) was evaluated in an open-label, sequential fashion following a single 20 mg dose of formulation 5 in participants who had previously received a 20 mg dose of formulation 5 under fasted conditions.

hCav3.2 = target: T1, hCav3.2 (Homo sapiens, UniProt O95180); experiment: PatchXpress patch clamp, tonic block (resting state, -120 mV); assay type: cell-based
T1 construct: expressed in transfected cells; host or cells: HEK-293 (cultured under G418 selection)
T1 sequence (O95180 whole entry): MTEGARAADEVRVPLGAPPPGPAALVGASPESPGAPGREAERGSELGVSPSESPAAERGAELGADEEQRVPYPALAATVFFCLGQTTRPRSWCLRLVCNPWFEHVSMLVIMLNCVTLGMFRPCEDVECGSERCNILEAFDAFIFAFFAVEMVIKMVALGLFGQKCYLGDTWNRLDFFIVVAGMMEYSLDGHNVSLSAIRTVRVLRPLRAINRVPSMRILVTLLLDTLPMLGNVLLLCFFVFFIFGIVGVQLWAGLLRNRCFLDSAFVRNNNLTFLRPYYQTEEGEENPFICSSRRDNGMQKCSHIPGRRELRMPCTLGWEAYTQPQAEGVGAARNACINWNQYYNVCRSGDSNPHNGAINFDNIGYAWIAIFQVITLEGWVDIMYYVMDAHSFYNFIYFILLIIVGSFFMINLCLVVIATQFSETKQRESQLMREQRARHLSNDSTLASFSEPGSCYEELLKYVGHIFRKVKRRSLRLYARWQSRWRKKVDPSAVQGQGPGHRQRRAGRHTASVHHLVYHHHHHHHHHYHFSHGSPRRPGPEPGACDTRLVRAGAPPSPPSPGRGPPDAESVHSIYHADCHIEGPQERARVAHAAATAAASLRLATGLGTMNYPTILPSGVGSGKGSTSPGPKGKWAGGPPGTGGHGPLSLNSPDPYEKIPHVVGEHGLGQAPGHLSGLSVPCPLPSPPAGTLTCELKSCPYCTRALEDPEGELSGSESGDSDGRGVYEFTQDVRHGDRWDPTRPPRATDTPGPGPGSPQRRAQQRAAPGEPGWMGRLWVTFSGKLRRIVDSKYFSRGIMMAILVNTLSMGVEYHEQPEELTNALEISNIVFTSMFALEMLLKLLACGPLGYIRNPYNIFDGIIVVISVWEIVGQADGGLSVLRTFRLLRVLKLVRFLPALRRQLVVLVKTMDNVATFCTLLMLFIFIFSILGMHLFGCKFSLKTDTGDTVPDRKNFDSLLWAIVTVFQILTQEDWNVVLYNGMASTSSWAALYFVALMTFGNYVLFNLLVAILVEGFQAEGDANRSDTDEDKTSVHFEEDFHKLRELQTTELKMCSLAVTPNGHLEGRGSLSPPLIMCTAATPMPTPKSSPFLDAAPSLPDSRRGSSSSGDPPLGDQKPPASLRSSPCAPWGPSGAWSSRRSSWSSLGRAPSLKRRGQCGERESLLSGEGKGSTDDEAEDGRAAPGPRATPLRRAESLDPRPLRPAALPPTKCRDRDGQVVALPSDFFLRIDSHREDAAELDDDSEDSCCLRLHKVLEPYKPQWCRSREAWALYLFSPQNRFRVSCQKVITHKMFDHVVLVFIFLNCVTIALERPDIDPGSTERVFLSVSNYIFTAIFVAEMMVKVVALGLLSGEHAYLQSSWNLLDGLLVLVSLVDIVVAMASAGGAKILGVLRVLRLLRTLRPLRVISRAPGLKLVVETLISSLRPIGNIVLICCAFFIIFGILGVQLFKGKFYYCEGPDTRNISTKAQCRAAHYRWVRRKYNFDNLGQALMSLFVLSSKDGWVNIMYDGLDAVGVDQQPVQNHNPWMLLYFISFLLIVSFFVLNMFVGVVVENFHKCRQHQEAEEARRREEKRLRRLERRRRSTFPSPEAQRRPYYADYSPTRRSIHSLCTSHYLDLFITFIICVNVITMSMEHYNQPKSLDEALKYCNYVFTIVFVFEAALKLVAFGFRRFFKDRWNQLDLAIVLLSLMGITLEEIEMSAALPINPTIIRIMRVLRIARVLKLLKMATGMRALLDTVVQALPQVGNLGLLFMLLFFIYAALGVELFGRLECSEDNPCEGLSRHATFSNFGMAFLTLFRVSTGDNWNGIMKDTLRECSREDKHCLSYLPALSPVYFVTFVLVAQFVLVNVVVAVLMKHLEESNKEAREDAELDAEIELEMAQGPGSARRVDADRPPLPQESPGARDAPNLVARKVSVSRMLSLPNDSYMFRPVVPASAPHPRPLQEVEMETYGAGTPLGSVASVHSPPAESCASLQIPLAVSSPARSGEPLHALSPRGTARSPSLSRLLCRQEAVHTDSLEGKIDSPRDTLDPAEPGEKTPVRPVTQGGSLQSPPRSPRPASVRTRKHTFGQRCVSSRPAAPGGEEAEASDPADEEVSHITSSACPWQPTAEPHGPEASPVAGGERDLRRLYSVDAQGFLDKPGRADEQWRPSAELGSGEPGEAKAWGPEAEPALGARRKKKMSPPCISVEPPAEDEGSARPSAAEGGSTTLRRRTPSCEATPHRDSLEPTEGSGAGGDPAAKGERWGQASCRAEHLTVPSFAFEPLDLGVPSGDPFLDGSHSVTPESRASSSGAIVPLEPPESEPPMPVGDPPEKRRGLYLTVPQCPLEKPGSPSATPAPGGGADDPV
Experimental: (§2) The voltage dependence of calcium channel isoforms was determined by comparing the activity of resting (Tonic Block) and half-inactivated (Voltage Dependent Block) voltages across various concentrations of Formula (II). First, HEK-293 cells containing hCav3.1, hCav3.2, or hCav3.3 calcium channel isoforms were prepared by seeding at 2×10^6 cells per flask in culture for 2 days; the cells were then harvested at about 6×10^6 cells. Harvested cells were washed once in DPBS for approximately 30 minutes, and 1 mL of 1× (0.05%) Trypsin-EDTA was added, swirled, and allowed to sit on the cells for approximately 4 minutes. 10 mL of warmed DMEM high glucose media supplemented with 10% fetal bovine serum, 2 mM sodium pyruvate, 10 mM HEPES, and 400 μg/mL G418 was added, and the cells were triturated until a single cell suspension was […]. Cells were placed in a 250 mL centrifuge tube with 30 mL warmed media and gently rocked at 28° C. for approximately 1 hour. Cell aliquots of 5 mLs (1×10^6 cells) were then centrifuged at 100× for 2 minutes, and supernatant was removed. Next, 100 μl of external recording solution was added to the remaining cell pellet and triturated 20 times to achieve a single cell suspension.
(§3) Immediately prior to assay, Formula (II) was diluted with DMSO to 300× the designated final concentration. All studies were performed using the Molecular Devices PatchXpress automated patch clamp platform at room temperature.
(§4) To determine the hCav3.1, hCav3.2, and hCav3.3 peak current from a resting, closed state (tonic block), currents were evokes by depolarizing pulses to −25 mV (10 ms) from −120 mV (a non-inactivated holding potential) at a frequency of 0.1 Hz. Peak current was defined as the peak inward current during Epoch 1 with no leak subtraction applied. Current stability was monitored, and the potency of each compound was determined using concentration response curves.
(§5) Pharmacology was measured during Epoch 1. Percent inhibition was calculated as: 100*((([Step 2+Step 5]/2)−Step 3)/(Step 2+Step 5/2)), wherein Step 2 is the peak current measured at baseline, Step 5 is the current measured during the wash period, and Step 3 is the peak current measured during application of the compound. The average of the final 3 consecutive currents in each experimental procedure was used for all calculations. The concentration response curve was fit with a Hill equation to derive IC50, slope, minimum response, and maximum response fitting parameters.

hCav3.3 = target: T2, hCav3.3 (Homo sapiens, UniProt Q9P0X4); experiment: as above; assay type: cell-based
T2 construct: expressed in transfected cells; host or cells: HEK-293 (cultured under G418 selection)
Experimental: as §2, §3, §4, §5

hCav3.1 = target: T3, hCav3.1 (Homo sapiens, UniProt O43497); experiment: as above; assay type: cell-based
T3 construct: expressed in transfected cells; host or cells: HEK-293 (cultured under G418 selection)
T3 sequence (O43497 whole entry): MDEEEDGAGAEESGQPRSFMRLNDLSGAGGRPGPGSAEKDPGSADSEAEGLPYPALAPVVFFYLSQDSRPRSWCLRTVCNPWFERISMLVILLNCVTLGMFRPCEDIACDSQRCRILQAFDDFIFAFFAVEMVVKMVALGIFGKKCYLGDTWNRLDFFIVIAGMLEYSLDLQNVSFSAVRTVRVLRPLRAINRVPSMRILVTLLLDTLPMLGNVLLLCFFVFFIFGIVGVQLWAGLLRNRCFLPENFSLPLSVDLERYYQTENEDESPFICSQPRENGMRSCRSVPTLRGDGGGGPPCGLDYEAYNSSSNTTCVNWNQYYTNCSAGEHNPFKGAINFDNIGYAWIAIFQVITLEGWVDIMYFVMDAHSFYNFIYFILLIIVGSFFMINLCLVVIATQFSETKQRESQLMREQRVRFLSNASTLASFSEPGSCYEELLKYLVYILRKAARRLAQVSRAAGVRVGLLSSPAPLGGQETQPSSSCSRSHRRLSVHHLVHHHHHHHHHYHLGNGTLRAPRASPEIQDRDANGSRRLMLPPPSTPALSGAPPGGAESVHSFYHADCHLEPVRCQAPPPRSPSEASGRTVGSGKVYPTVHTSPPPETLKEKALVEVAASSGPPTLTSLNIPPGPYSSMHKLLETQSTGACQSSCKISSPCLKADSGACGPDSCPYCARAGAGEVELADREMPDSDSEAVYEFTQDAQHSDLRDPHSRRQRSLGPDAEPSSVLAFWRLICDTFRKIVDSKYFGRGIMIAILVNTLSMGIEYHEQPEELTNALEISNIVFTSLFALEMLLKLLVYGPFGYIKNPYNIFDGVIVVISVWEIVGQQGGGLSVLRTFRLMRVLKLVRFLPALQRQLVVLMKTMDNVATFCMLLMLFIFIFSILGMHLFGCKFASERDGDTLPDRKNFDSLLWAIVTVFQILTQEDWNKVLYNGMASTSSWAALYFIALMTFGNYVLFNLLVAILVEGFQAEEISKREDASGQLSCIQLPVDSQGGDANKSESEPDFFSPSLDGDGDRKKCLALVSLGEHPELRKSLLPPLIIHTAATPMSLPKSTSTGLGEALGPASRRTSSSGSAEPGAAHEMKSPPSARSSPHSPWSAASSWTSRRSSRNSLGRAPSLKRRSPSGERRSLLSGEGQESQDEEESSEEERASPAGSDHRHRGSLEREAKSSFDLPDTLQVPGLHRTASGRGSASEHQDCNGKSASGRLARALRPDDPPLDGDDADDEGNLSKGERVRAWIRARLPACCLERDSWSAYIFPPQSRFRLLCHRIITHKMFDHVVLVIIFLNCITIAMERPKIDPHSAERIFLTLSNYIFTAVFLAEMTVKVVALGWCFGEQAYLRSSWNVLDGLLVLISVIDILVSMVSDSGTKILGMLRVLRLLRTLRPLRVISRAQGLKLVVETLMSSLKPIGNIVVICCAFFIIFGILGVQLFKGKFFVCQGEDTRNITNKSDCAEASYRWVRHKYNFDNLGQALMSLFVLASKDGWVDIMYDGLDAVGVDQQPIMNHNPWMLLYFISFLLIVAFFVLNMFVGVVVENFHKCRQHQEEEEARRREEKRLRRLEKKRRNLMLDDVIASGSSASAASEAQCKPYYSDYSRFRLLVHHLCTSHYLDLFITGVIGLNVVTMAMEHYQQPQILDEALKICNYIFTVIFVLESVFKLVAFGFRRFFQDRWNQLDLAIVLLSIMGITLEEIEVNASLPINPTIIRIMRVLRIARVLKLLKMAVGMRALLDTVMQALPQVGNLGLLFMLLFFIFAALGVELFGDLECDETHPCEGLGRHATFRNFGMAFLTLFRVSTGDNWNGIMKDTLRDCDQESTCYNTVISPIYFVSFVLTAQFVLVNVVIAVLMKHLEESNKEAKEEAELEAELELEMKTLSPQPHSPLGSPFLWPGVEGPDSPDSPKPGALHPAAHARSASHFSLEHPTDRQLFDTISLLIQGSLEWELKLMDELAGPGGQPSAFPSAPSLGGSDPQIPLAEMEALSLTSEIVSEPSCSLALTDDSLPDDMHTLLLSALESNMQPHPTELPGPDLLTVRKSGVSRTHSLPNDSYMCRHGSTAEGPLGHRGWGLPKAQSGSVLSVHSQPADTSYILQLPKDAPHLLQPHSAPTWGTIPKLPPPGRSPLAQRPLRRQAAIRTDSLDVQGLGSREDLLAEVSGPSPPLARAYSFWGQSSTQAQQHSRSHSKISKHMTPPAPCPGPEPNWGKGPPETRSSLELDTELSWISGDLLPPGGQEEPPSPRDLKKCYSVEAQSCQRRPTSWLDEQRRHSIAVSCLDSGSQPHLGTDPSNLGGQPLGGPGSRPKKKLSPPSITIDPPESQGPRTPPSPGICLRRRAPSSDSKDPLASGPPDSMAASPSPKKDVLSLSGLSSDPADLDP
Experimental: as §2, §3, §4, §5

[3] = system: sigma band EEG power during NREM sleep; experiment: 24-hour EEG/PSG: sigma band EEG power during NREM sleep; assay type: in vivo, human
Experimental: The effects of multiple doses of a wider dose range (Part A: 5, 10, 20 mg; Part B: 60, 80, 100, 120 mg) on sigma band EEG power during NREM sleep were also evaluated as part of the protocol described in Example 11, above. 24-hour EEG/PSG recordings were performed the day before dosing (baseline day) and after dosing on Days 4, 8, and 12 (for Part A) or Days 10, 17, 24, and 31 (for Part B). Part B also included placebo-treated participants for statistical comparisons.

gamma band EEG power = experiment: qEEG: gamma band EEG power (eyes open / eyes closed); assay type: in vivo, human; details: Part B, beginning at 60 mg and continuing through to 120 mg
Source text: It appears a maximal effect in gamma reduction was not achieved.
as §1

In the case of CC(C)(C)NC(=O)CN1CCC(CNC(=O)c2cc(F)cc(Cl)c2)CC1 [compound of formula (II), N-((1-(2-(tert-butylamino)-2-oxoethyl)piperidin-4-yl)methyl)-3-chloro-5-fluorobenzamide hydrochloride], the “Cave at which maximum reduction in NREM sigma absolute power appeared to occur” value ([1]; model predicted average plasma concentration, titrated) is reported as “greater than 180 ng/mL”, the “C(t) at which maximum reduction in EC gamma absolute power appeared to occur” value ([1]; titrated up to 120 mg) is reported as greater than 300 ng/mL and the “C(t) at which maximum reduction in EO gamma absolute power appeared to occur” value ([1]; titrated up to 120 mg) is reported as greater than 300 ng/mL. For the same compound, the “AUClast Ratio (fed/fasted)” value [2] was 1.14, the “AUC∞ Ratio (fed/fasted)” value [2] was 1.15 and the “Cmax Ratio (fed/fasted)” value [2] was 1.49. The “Inhibition of peak current, tonic block, Mean” value (from here on “Inhibition of peak current”) (hCav3.2; 0.09 μm) was 12.6 (4) %, the “Inhibition of peak current” value (hCav3.2; 0.27 μm) was 37.1 (6) % and the “Inhibition of peak current” value (hCav3.2; 0.91 μm) was 55.1 (13) %. For the same compound, the “Inhibition of peak current” value (hCav3.2; 2.74 μm) was 76.2%, the “Inhibition of peak current” value (hCav3.2; 9.13 μm) was 89.7% and the “Inhibition of peak current” value (hCav3.2; 27.40 μm) was 96.9%. The “Inhibition of peak current” value (hCav3.2; 91.33 μm) was 98.2%, the “Inhibition of peak current” value (hCav3.3; 0.09 μm) was 3.8 (7) % and the “Inhibition of peak current” value (hCav3.3; 0.27 μm) was 23.0 (11) %. The “Inhibition of peak current” value (hCav3.3; 0.91 μm) was 54.5 (5) %, the “Inhibition of peak current” value (hCav3.3; 2.74 μm) was 77.1 (6) % and the “Inhibition of peak current” value (hCav3.3; 9.13 μm) was 92.1 (5) %. The “Inhibition of peak current” value (hCav3.3; 27.40 μm) was 94.6 (5) %, the “Inhibition of peak current” value (hCav3.1; 0.09 μm) was 8.8 (7) % and the “Inhibition of peak current” value (hCav3.1; 0.27 μm) was 29.4 (11) %. The “Inhibition of peak current” value (hCav3.1; 0.91 μm) was 50.2 (9) %, the “Inhibition of peak current” value (hCav3.1; 2.74 μm) was 67.5 (10) % and the “Inhibition of peak current” value (hCav3.1; 9.13 μm) was 76.6 (9) %. For the same compound, the “Inhibition of peak current” value (hCav3.1; 27.40 μm) was 89.5 (4) %, the “Effect on NREM sigma band as compared to a placebo control” value ([3]; 20 mg tablet and 40 mg tablet (FIG. 12)) was “decrease” and the “NREM sigma power, Difference Ratio Formula (II) v. Placebo” value ([3]; Day 10 (60 mg), Part B) was 0.550. The “Dose at which the decrease in sigma band EEG power plateaued” value ([3]; Part B, relative to placebo-treated subjects) was 80 mg and the “Effect on gamma band EEG power” value (gamma band EEG power) was “dose-related reduction”.
